Laboratory results published in patent US20070191461A1, “USE OF BENZO-HETEROARYL SULFAMIDE DERIVATIVES FOR THE TREATMENT OF MIGRAINE” (priority 2006, published 2007).
Values joined by “and” are separate entries in the source; they are usually repeats but may differ in a detail not shown here. Equal entries are not always repeated.

Legend:
[1] = tested on: KCl-induced cortical spreading depression; test: Cortical spreading depression (CSD) assay as model of migraine; format: in vivo, Sprague-Dawley rats; settings: rats, 100 mg/kg/day p.o. for 35 days
Protocol: Cortical spreading depression (CSD) has been implicated in migraine and as a headache trigger, and can be evoked in experimental animals by electrical or chemical stimulation (Kunkler & Kraig, 2003; Lauritzen et al., 1982; Moskowitz, 1984).
(§1) Adult male Sprague-Dawley rats (250-600 g) were divided into two treatment groups: vehicle (0.5% methylcellulose; n=13) and Compound #1 (100 mg/kg/day, p.o.; n=7). Results were compared to historical positive controls with valproic acid at 200 mg/kg/day, i.p.
Vehicle or Compound #1 was administered orally once a day for 35 days. On the last day of treatment, rats continued to receive food and water ad libitum, and were given their daily oral dose of vehicle or Compound #1 approximately 1.5 h prior to CSD testing. Rats were anesthetized using isoflurane and intubated via a tracheotomy for mechanical ventilation. Body temperature, blood pressure and heart rate were monitored throughout the procedure to ensure homeostasis. […] The steady (DC) potential and electrocorticogram (EcoG) were recorded with glass micropipettes filled with 200 mM NaCl, […] below the dural surface. […] The number of KCL-induced CSDs was counted for 2 hours. Propagation speed was calculated from the distance (mm) between the recording electrodes 1 and 2, divided by the latency (min) between the CSDs recorded at these sites. […]

[2] = Body weight and systemic physiology monitoring during CSD testing; format: in vivo, Sprague-Dawley rats; settings: rats, 100 mg/kg/day p.o. for 35 days
Protocol: as §1
Vehicle or Compound #1 was administered orally once a day for 35 days. On the last day of treatment, rats continued to receive food and water ad libitum, and were given their daily oral dose of vehicle or Compound #1 approximately 1.5 h prior to CSD testing. Rats were anesthetized using isoflurane and intubated via a tracheotomy for mechanical ventilation. Body temperature, blood pressure and heart rate were monitored throughout the procedure to ensure homeostasis. Rats were placed in a stereotaxic frame and three burr holes were drilled under saline cooling over the right hemisphere at the following coordinates (mm from bregma): (1) posterior 4.5, lateral 2.0 (occipital cortex): KCL application; (2) posterior 0.5, lateral 2.0 (parietal cortex): recording site 1; (3) anterior 2, lateral 2 (frontal cortex): recording site 2. Dura overlying the occipital cortex was gently removed. The steady (DC) potential and electrocorticogram (EcoG) were recorded with glass micropipettes filled with 200 mM NaCl, […] below the dural surface. An Ag/AgCl reference electrode was placed subcutaneously in the neck. Following surgical preparation, the cortex was allowed to recover for 30 minutes under saline irrigation. Cortical spreading depressions were initiated by placing a cotton ball soaked with 1 M KCl on the pial surface. The number of KCL-induced CSDs was counted for 2 hours. Propagation speed was calculated from the distance (mm) between the recording electrodes 1 and 2, divided by the latency (min) between the CSDs recorded at these sites.

[3] = tested on: KCl-induced cortical spreading depression; settings: historical positive control, 200 mg/kg/day i.p. for 4 weeks; saline vehicle 18; p<0.05; cited from earlier work

Row | Compound | Propagation Speed ([1]; KCl-induced CSD, vehicle 3.2 ± 1, p=0.06) | CSDs (2 h) ≧5 mV (number of KCl-induced cortical spreading depressions) ([1]; last dose approx. 1.5 h before testing, topical 1 M KCl, counted for 2 hours, vehicle 16 ± 3, p=0.12) | Physiological monitoring, including arterial pH, pCO2, pO2 and blood pressure, versus vehicle [2] | Systemic Physiology: BP (blood pressure) ([2]; during CSD testing) | Systemic Physiology: pCO2 ([2]; during CSD testing) | Systemic Physiology: pH (arterial) ([2]; during CSD testing) | Systemic Physiology: pO2 ([2]; during CSD testing) | Number of cortical spreading depressions [3]
1 | NS(=O)(=O)NCc1csc2ccccc12 [Compound #1, N-(benzo[b]thien-3-ylmethyl)-sulfamide] | 2.8 ± 0.3 mm/min | 12 and 12 ± 5 | did not differ between the groups | 102 ± 6 | 42 ± 6 | 7.4 ± 0.05 | 154 ± 23 | –
2 | CCCC(CCC)C(=O)O [valproate, valproic acid] | – | – | – | – | – | – | – | 12
